The test system of this test is recombinant NL-Rluc virus. Put plainly: Inhibition of HIV replication (NL-RLuc luciferase reporter virus in MT-2 cells). The format is cell-based. The following applies: Human immunodeficiency virus 1, MT2, 120 h. For orientation: Reporter assays use an easily measured gene product as a stand-in for the process of interest.
For `Cc1cn2nc3cc2c(c1[C@H](OC(C)(C)C)C(=O)O)N1CCC(C)(CC1)OCCCC[C@H](C)Oc1cc(F)ccc1-c1cccc-3c1` [Example 38, (2S)-2-(tert-Butoxy)-2-[(22S)-18-fluoro-4,22,28-trimethyl-21,27-dioxa-1,6,34-triazahexacyclo[26.2.2.1^6,^9.1^10,^14.0^2,^7.0^15,^20]tetratriaconta-2,4,7,9 (34),10(33),11,13,15 (20),16,18-decaen-3-yl]acetic acid], the EC50 (as a rule, the concentration giving half of the maximal effect) stood at 0.03 µM.

On to `Cc1cn2nc3cc2c(c1[C@H](OC(C)(C)C)C(=O)O)N1CCC(C)(CC1)OCCCC[C@H](C)Oc1ccc(C#N)cc1-c1cccc-3c1` [Example 42, (2S)-2-(tert-Butoxy)-2-[(22S)-17-cyano-4,22,28-trimethyl-21,27-dioxa-1,6,34-triazahexacyclo[26.2.2.1^6,^9.1^10,^14.0^2,^7.0^15,^20]tetratriaconta-2,4,7,9 (34),10(33),11,13,15(20),16,18-decaen-3-yl]acetic acid], for which the EC50 amounted to 0.007 µM.

Consider `CCCOC1(C)CCN(c2c([C@H](OC(C)(C)C)C(=O)O)c(C)cn3nc(-c4cccc(-c5c(O[C@@H](C)CCC)ccc(C)c5F)c4)cc23)CC1` [Example 41, (2S)-2-(tert-Butoxy)-2-[2-(3-{2-fluoro-3-methyl-6-[(2S)-pentan-2-yloxy]phenyl}phenyl)-6-methyl-4-(4-methyl-4-propoxypiperidin-1-yl)pyrazolo[1,5-a]pyridin-5-yl]acetic acid], for which the EC50 was 0.728 µM.

As for `CCC[C@H](C)Oc1cccc(F)c1-c1cccc(-c2cc3c(N4CCC(C)(O)CC4)c([C@H](OC(C)(C)C)C(=O)O)c(C)cn3n2)c1` [Example 35, (2S)-2-(tert-Butoxy)-2-[2-(3-{2-fluoro-6-[(2S)-pentan-2-yloxy]phenyl}phenyl)-4-(4-hydroxy-4-methylpiperidin-1-yl)-6-methylpyrazolo[1,5-a]pyridin-5-yl]acetic acid], the EC50 turned out to be 0.607 µM.

With `Cc1ccc2c(c1)-c1cccc(c1)-c1cc3c(c([C@H](OC(C)(C)C)C(=O)O)c(C)cn3n1)N1CCC(C)(CC1)OCCC[C@H](C)CO2` (single isomer, unassigned) [Example 32], the EC50 amounted to 0.178 µM.

Consider `Cc1cn2nc3cc2c(c1[C@H](OC(C)(C)C)C(=O)O)N1CCC(C)(CC1)OCCCC[C@H](C)Oc1ccc(F)cc1-c1cccc-3c1` [Example 36, (2S)-2-(tert-Butoxy)-2-[(22S)-17-fluoro-4,22,28-trimethyl-21,27-dioxa-1,6,34-triazahexacyclo[26.2.2.1^6,^9.1^10,^14.0^2,^7.0^15,^20]tetratriaconta-2,4,7,9(34),10(33),11,13,15(20),16,18-decaen-3-yl]acetic acid], for which the EC50 was 0.05 µM.

As for `Cc1ccc2c(c1F)-c1cccc(c1)-c1cc3c(c([C@H](OC(C)(C)C)C(=O)O)c(C)cn3n1)N1CCC(C)(CC1)OCCCC[C@@H](C)O2` [Example 40, (2S)-2-(tert-Butoxy)-2-[(22R)-16-fluoro-4,17,22,28-tetramethyl-21,27-dioxa-1,6,34-triazahexacyclo[26.2.2.1^6,^9.1^10,^14.0^2,^7.0^15,^20]tetratriaconta-2,4,7,9(34),10(33),11,13,15(20),16,18-decaen-3-yl]acetic acid], the EC50 was found to be 2.35 µM.

Take `Cc1cn2nc(-c3ncc(Cc4ccc(F)cc4)o3)cc2c(N2CCC(C)(C)CC2)c1[C@H](OC(C)(C)C)C(=O)O` [Example 5, (S)-2-(tert-Butoxy)-2-(4-(4,4-dimethylpiperidin-1-yl)-2-(5-(4-fluorobenzyl)oxazol-2-yl)-6-methylpyrazolo[1,5-a]pyridin-5-yl)acetic acid]: the EC50 worked out at 0.005 µM.

With `Cc1cn2nc3cc2c(c1[C@H](OC(C)(C)C)C(=O)O)N1CCC(C)(CC/C=C/COc2cc(F)ccc2CNC3=O)CC1` [Example 26, (2S)-2-(tert-Butoxy)-2-[(21E)-16-fluoro-4,25-dimethyl-10-oxo-19-oxa-1,6,11,30-tetraazapentacyclo[23.2.2.1^6,^9.0^2,^7.0^13,^18]triaconta-2,4,7,9(30),13(18),14,16,21-octaen-3-yl]acetic acid], the EC50 is 0.006 µM.

These data come from US9527842B2, “Inhibitors of human immunodeficiency virus replication” (priority 2013, dated 2016).
